In patent US20150197492A1, “NOVEL INDENO[1,2-c]QUINOLIN-11-ONE DERIVATIVES, PREPARATION METHOD AND APPLICATION THEREOF” (National Defense Medical Center, priority 2014, published 2015):

Assays:
Test in all cases: cells
Format in all cases: cell-based
[1] = system: CCRF-CEM; conditions: CCRF-CEM (Leukemia), 10 μM, 48 hours
[2] = system: OVCAR-8; conditions: OVCAR-8 (Ovarian Cancer), 10 μM, 48 hours
[3] = system: SF-539; conditions: SF-539 (CNS Cancer), 10 μM, 48 hours
[4] = system: SK-MEL-5; conditions: SK-MEL-5 (Melanoma), 10 μM, 48 hours
[5] = system: COLO 205; conditions: COLO 205 (Colon Cancer), 10 μM, 48 hours
[6] = system: UACC-62; conditions: UACC-62 (Melanoma), 10 μM, 48 hours
[7] = system: HCC-2998; conditions: HCC-2998 (Colon Cancer), 10 μM, 48 hours
[8] = system: NCI/ADR-RES; conditions: NCI/ADR-RES (Ovarian Cancer), 10 μM, 48 hours
[9] = system: NCI-H226; conditions: NCI-H226 (Non-Small Cell Lung Cancer), 10 μM, 48 hours
[10] = system: HS 578T; conditions: HS 578T (Breast Cancer), 10 μM, 48 hours
[11] = system: SNB-75; conditions: SNB-75 (CNS Cancer), 10 μM, 48 hours
[12] = system: MDA-MB-435; conditions: MDA-MB-435 (Melanoma), 10 μM, 48 hours
[13] = system: DU-145; conditions: DU-145 (Prostate Cancer), 10 μM, 48 hours
[14] = system: A549/ATCC; conditions: A549/ATCC (Non-Small Cell Lung Cancer), 10 μM, 48 hours
[15] = system: UO-31; conditions: UO-31 (Renal Cancer), 10 μM, 48 hours
[16] = system: SNB-19; conditions: SNB-19 (CNS Cancer), 10 μM, 48 hours
[17] = system: RPMI-8226; conditions: RPMI-8226 (Leukemia), 10 μM, 48 hours
[18] = system: HOP-62; conditions: HOP-62 (Non-Small Cell Lung Cancer), 10 μM, 48 hours
[19] = system: UACC-257; conditions: UACC-257 (Melanoma), 10 μM, 48 hours
[20] = system: RXF 393; conditions: RXF 393 (Renal Cancer), 10 μM, 48 hours
[21] = system: MDA-MB-468; conditions: MDA-MB-468 (Breast Cancer), 10 μM, 48 hours
[22] = system: MDA-MB-231/ATCC; conditions: MDA-MB-231/ATCC (Breast Cancer), 10 μM, 48 hours
[23] = system: OVCAR-5; conditions: OVCAR-5 (Ovarian Cancer), 10 μM, 48 hours
[24] = system: NCI-H522; conditions: NCI-H522 (Non-Small Cell Lung Cancer), 10 μM, 48 hours
[25] = system: T-47D; conditions: T-47D (Breast Cancer), 10 μM, 48 hours
[26] = system: CAKI-1; conditions: CAKI-1 (Renal Cancer), 10 μM, 48 hours
[27] = system: MCF7; conditions: MCF7 (Breast Cancer), 10 μM, 48 hours
[28] = system: MALME-3M; conditions: MALME-3M (Melanoma), 10 μM, 48 hours
[29] = system: 786-0; conditions: 786-0 (Renal Cancer), 10 μM, 48 hours

Row | SMILES | growth percentage [1] [%] | growth percentage [2] [%] | growth percentage [3] [%] | growth percentage [4] [%] | growth percentage [5] [%] | growth percentage [6] [%] | growth percentage [7] [%] | growth percentage [8] [%] | growth percentage [9] [%] | growth percentage [11] [%] | growth percentage [12] [%] | growth percentage [13] [%] | growth percentage [14] [%] | growth percentage [15] [%] | growth percentage [16] [%] | growth percentage [17] [%] | growth percentage [19] [%] | growth percentage [20] [%] | growth percentage [21] [%] | growth percentage [22] [%] | further results
1 | CNc1nc2ccccc2c2c1-c1ccc(Cl)cc1C2=O [SJ-1, 9-Chloro-6-(methylamino)-11H-indeno[1,2-c]quinolin-11-one] | 101.50 | 94.33 | 92.08 | 80.96 | 66.47 | 77.41 | 57.51 | 92.22 | 92.19 | 79.70 | 107.24 | 106.88 | 96.83 | 56.91 | 95.95 | 91.82 | 107.69 | 97.15 | -31.61 | 83.87 | growth percentage [10]: 85.28%; growth percentage [18]: 87.10%; growth percentage [23]: 81.54%; growth percentage [24]: 90.50%; growth percentage [25]: 23.53%; growth percentage [26]: 73.84%; growth percentage [27]: 5.24%; growth percentage [28]: 114.83%; growth percentage [29]: 103.34%
2 | CC1CCN(c2nc3ccccc3c3c2-c2ccc(Cl)cc2C3=O)CC1 [SJ-6, 9-Chloro-6-(4-methylpiperidin-1-yl)-11H-indeno[1,2-c]quinolin-11-one] | 104.33 | 96.38 | 90.22 | 98.52 | 104.79 | 93.36 | 102.76 | 90.28 | 94.59 | 84.42 | 104.53 | 103.47 | 101.69 | 76.25 | 103.87 | 97.99 | 106.47 | 97.51 | 97.12 | 90.96 | growth percentage [10]: 98.38%; growth percentage [18]: 64.18%; growth percentage [23]: 104.92%; growth percentage [24]: 98.45%; growth percentage [25]: 67.68%; growth percentage [26]: 83.89%; growth percentage [27]: 64.65%; growth percentage [28]: 98.31%; growth percentage [29]: 102.73%
3 | O=C1c2cc(Cl)ccc2-c2c(N3CCSCC3)nc3ccccc3c21 [SJ-9, 9-Chloro-6-thiomorpholino-11H-indeno[1,2-c]quinolin-11-one] | 105.04 | 96.11 | 92.93 | 89.52 | 96.30 | 94.90 | 103.16 | 102.85 | 94.22 | 72.13 | 107.70 | 106.04 | 104.35 | 65.33 | 113.43 | 95.20 | 107.44 | 106.09 | 97.71 | 93.08 | growth percentage [10]: 87.68%; growth percentage [18]: 78.17%; growth percentage [23]: 94.37%; growth percentage [24]: 92.76%; growth percentage [25]: 83.86%; growth percentage [26]: 82.68%; growth percentage [27]: 49.61%; growth percentage [28]: 101.05%; growth percentage [29]: 99.53%
4 | O=C1c2cc(Cl)ccc2-c2c(N3CCN(C4CCCC4)CC3)nc3ccccc3c21 [SJ-14, 9-Chloro-6-(4-cyclopentylpiperazin-1-yl)-11H-indeno[1,2-c]quinolin-11-one] | 95.17 | 96.55 | 101.34 | 97.48 | 104.54 | 95.06 | 106.04 | 100.39 | 92.80 | 86.36 | 99.93 | 110.73 | 101.56 | 72.57 | 95.06 | 94.89 | 98.37 | 95.60 | 103.99 | 82.96 | growth percentage [10]: 99.40%; growth percentage [18]: 108.83%; growth percentage [23]: 106.41%; growth percentage [24]: 98.72%; growth percentage [25]: 92.20%; growth percentage [26]: 93.83%; growth percentage [27]: 75.18%; growth percentage [28]: 92.48%; growth percentage [29]: 97.90%
5 | O=C1c2cc(Cl)ccc2-c2c(N3CCN(c4ccccc4)CC3)nc3ccccc3c21 [SJ-16, 9-Chloro-6-(4-phenylpiperazin-1-yl)-11H-indeno[1,2-c]quinolin-11-one] | 93.52 | 75.82 | 83.17 | 99.23 | 102.19 | 87.17 | 106.23 | 97.88 | 79.43 | 33.20 | 99.55 | 102.96 | 90.89 | 65.02 | 88.40 | 95.33 | 98.40 | 72.95 | 95.37 | 73.80 | growth percentage [23]: 88.56%; growth percentage [24]: 80.10%; growth percentage [25]: 75.93%; growth percentage [26]: 80.23%; growth percentage [27]: 53.31%; growth percentage [28]: 100.05%; growth percentage [29]: 81.41%
